Consider 14 compounds from patent publication US20070225308A1, “2-Amino Quinazoline Derivative” (Kyowa Hakko Kogyo Co.,Ltd., priority 2004, published 2007).

SMILES strings stand for the structures.

The target of the first data set is T1, recombinant human PDE-IV (HSPDE4A) (Homo sapiens, UniProt P27815).
T1 construct: made in house; host or cells: Sf9 insect cells
T1 sequence (P27815 whole entry): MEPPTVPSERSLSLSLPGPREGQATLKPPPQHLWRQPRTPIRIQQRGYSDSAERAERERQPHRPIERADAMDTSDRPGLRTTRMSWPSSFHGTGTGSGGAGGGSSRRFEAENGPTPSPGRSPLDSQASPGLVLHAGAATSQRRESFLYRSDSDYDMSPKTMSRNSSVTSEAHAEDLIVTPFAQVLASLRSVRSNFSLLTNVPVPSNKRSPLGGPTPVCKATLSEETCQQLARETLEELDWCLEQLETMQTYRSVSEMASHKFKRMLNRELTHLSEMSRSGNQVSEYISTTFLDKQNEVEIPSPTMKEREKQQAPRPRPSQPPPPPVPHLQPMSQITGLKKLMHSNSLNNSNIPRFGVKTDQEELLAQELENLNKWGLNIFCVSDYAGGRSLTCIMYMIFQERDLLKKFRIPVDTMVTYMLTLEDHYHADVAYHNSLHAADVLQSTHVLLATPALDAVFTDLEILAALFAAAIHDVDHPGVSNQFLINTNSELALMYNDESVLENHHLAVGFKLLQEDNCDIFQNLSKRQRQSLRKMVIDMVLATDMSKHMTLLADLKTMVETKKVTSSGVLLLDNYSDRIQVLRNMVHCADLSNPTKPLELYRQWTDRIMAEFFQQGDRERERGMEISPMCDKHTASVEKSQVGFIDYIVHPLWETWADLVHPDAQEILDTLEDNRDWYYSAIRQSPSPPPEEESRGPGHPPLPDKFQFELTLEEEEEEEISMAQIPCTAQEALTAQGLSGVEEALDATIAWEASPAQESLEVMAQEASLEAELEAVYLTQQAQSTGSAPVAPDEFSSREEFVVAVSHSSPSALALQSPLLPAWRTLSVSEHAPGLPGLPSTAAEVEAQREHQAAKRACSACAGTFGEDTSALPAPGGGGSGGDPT
Nature of the data set: Recombinant Human PDE-IV-Inhibiting Test. The format is biochemical. To be noted: at the concentration of 0.1 μmol/L; substrate [3H]cAMP 1 μmol/L; read-out: enzyme-inhibitory activity. As to the method:
Recombinant Human PDE-IV-Inhibiting Test
A human PDE cDNA (HSPDE4A) was isolated from HL-60 cells. An expected amino acid sequence thereof is the same as the sequence (HSPDE4A4) reported by Bolger G., et al (Mol. Cell. Biol., 1993, Vol. 13, p. 6558). The recombinant protein was expressed, using Sf9 insect cells. The PDE activity was measured according to the following two-step process, based on the method by Kincid R. L. and Manganiello V. C. (Method. Enzymol., 1988, Vol. 159, p. 457). [^3H]cAMP (final concentration: 1 μmol/L) was used as the substrate. The reaction was performed in a standard, mixture containing N,N-bis(2-hydroxyethyl)-2-aminoethanesulfonic acid (50 mmol/L, pH 7.2), magnesium chloride (1 mmol/L) and soybean trypsin inhibitor (0.1 mg/mL). The reaction was started by the addition of enzyme, and the reaction mixture was incubated at 30° C. for 10 to 30 minutes. The reaction was stopped by hydrochloric acid, and the formed 5′-AMP was completely decomposed by 5′-nucleotidase. The resulting mixture was treated with chromatography of DEAE-Sephadex A-25, and the eluted [^3H]adenosine was counted with a scintillation counter. The test compounds were dissolved in DMSO, and added to the system (concentration 1.7%).
`COc1c(-c2ccc(C(=O)O)cc2)cc(-c2cccc([N+](=O)[O-])c2)c2cnc(N)nc12` [Compound 12, 2-Amino-7-(4-carboxyphenyl)-8-methoxy-5-(3-nitrophenyl)quinazoline]: the inhibition at 0.1 µM was ≥ 50%.

Take `COc1c(-c2ccc(C(=O)O)cc2)cc(-c2cccc(Cl)c2)c2cnc(N)nc12` [Compound 13, 2-Amino-7-(4-carboxyphenyl)-5-(3-chlorophenyl)-8-methoxyquinazoline]: the inhibition at 0.1 µM is ≥ 50%.

With `COc1c(-c2ccc(C(=O)O)cc2)cc(-c2cccc([N+](=O)[O-])c2)c2cnc(N(C)C)nc12` [Compound 14, 7-(4-Carboxyphenyl)-2-dimethylamino-8-methoxy-5-(3-nitrophenyl)quinazoline], the inhibition at 0.1 µM was ≥ 50%.

For `COc1c(-c2ccc(C(=O)O)cc2)cc(-c2cccc(Cl)c2)c2cnc(N(C)C)nc12` [Compound 15, 7-(4-Carboxyphenyl)-5-(3-chlorophenyl)-2-dimethylamino-8-methoxyquinazoline], the inhibition at 0.1 µM is ≥ 50%.

As to `CNc1ncc2c(-c3cccc(Cl)c3)cc(-c3ccc(C(=O)O)cc3)c(OC)c2n1` [Compound 18, 7-(4-Carboxyphenyl)-5-(3-chlorophenyl)-8-methoxy-2-(methylamino)quinazoline], the inhibition at 0.1 µM is ≥ 50%.

For `CNc1ncc2c(-c3cccc(C#N)c3)cc(-c3ccc(C(=O)O)cc3)c(OC)c2n1` [Compound 19, 7-(4-Carboxyphenyl)-5-(3-cyanophenyl)-8-methoxy-2-(methylamino)quinazoline], the inhibition at 0.1 µM was ≥ 50%.

For `CNc1ncc2c(-c3cncc(Cl)c3)cc(-c3ccc(C(=O)O)cc3)c(OC)c2n1` [Compound 20, 7-(4-Carboxyphenyl)-5-(5-chloropyridine-3-yl)-8-methoxy-2-(methylamino)quinazoline], the inhibition at 0.1 µM is ≥ 50%.

Take `CNc1ncc2c(-c3cccc(Cl)c3)cc(CCC(=O)O)c(OC)c2n1` [Compound 35, 7-(2-Carboxyethyl)-5-(3-chlorophenyl)-8-methoxy-2-(methylamino)quinazoline]: the inhibition at 0.1 µM was ≥ 50%.

On to `COc1c(-c2cccc(C(=O)O)c2)cc(-c2cccc(Cl)c2)c2cnc(N(C)C)nc12` [Compound 37, 7-(3-Carboxyphenyl)-5-(3-chlorophenyl)-2-dimethylamino-8-methoxyquinazoline], for which the inhibition at 0.1 µM is ≥ 50%.

For `COc1c(C2=CCNCC2)cc(-c2cccc(Cl)c2)c2cnc(N(C)C)nc12` [Compound 43, 5-(3-Chlorophenyl)-2-dimethylamino-8-methoxy-7-(1,2,5,6-tetrahydropyridine-4-yl)quinazoline], the inhibition at 0.1 µM is ≥ 50%.

Tested on in a further data set: not given
Experiment: not given
Conditions: not given
For orientation: melting point means the temperature, or range, at which the solid turns liquid. Regarding `CNc1ncc2c(-c3cccc(Cl)c3)cc(-c3ccc(CCC(=O)O)cc3)c(OC)c2n1` [Compound 55, 7-[4(2-Carboxyethyl)phenyl]-5-(3-chlorophenyl)-8-methoxy-2-(methylamino)quinazoline], the melting point lay in the range of 208 to 213 °C.

`CNc1ncc2c(-c3cccc(Cl)c3)cc(-c3cccc(CC(=O)O)c3)c(OC)c2n1` [Compound 59, 7-[3-(Carboxymethyl)phenyl]-5-(3-chlorophenyl)-8-methoxy-2-(methylamino)quinazoline] showed a melting point of 258 to 261 °C.

In turn, `CNc1ncc2c(-c3cccc(Cl)c3)cc(/C=C/C(=O)O)c(OC)c2n1` [Compound 95, 7-[E-(2-carboxyethenyl)]-5-(3-chlorophenyl)-8-methoxy-2-(methylamino)quinazoline] displayed a melting point of 291 to 295 °C.

Regarding `CNc1ncc2c(-c3cccc(Cl)c3)cc(-c3ccc(C(=O)O)cc3)c(O)c2n1` [Compound 112, 7-(4-Carboxyphenyl)-5-(3-chlorophenyl)-8-hydroxy-2-(methylamino)quinazoline], the melting point was in the range of 291 to 296 °C.
